Measured values reported in patent publication US11465984B2, “Compound having ERK kinase inhibitory activity and use thereof” (SHANGHAI HAIHE PHARMACEUTICAL CO., LTD., priority 2017, dated 2022).

Tests used:
[1] = tested on: human melanoma cell line A375; test: In vitro cell study: proliferation of A375 cells (SRB); format: cell-based; conditions: A-375, 72 h incubation, read-out: IC50 against A375 cell
Method: The inhibitory activity of Compound P9 of the invention and the representative compounds of WO2017/114510A1 on the proliferation of human melanoma cell line A375 (IC50 value) was determined in this Example.
• Cell: human melanoma cell line A375 (CRL-1619™, ATCC) • Detection reagent: sulforhodamine B SRB (S9012, Sigma) • Microplate: 96 well microplate (3599, Corning) • Microplate reader: full-wavelength microplate reader (SpectraMax 190, Molecular Devices) (2). Assay Protocol:
Cells in logarithmic growth phase were seeded at appropriate density (3500/well) into 96-well microplates in the volume of 90 μL per well. After incubation in a CO2 incubator at 37° C. overnight, 10 μL of the compound at various concentrations or saline for medium control was added in triplicate and incubated for 72 h, and a blank well was set. […] The optical density (OD value) at the wavelength of 560 nm was measured using a full-wavelength microplate reader SpectraMax 190. The inhibition rate of the drug on the growth of the tumor cells was calculated according to the following formula: […]
The IC50 values were obtained by regression with four-parameter method using the software attached to the microplate reader. […]

[2] = Permeability study, Caco-2 cell in vitro drug absorption model; format: in vitro ADME; conditions: human
Method: The permeability of Compound P9 of the invention and Compound A107 of WO2017/114510A1 was determined using Caco-2 cell in vitro drug absorption model in this Example
• Cell: human intestinal cancer Caco2 (HTB-37, ATCC) • Petri dish: 10 cm petri dish (430167, Corning) • Millicell-24 microplage (PSHT010R5, Millipore) • Buffer: PBS (14190, Invitrogen) • HEPES (H0887, Sigma) • HBSS (H8264, Sigma) • Substances related to cell culture: • high glucose DMEM medium (L0103-500, Biowest) • fetal bovine serum (S1810-500, Biowest) • trypsin (255200-056, Invitrogen) • nonessential amino acid (M7145, Sigma) • penicillin and streptomycin (B-13234, GIBCO) • sodium pyruvate (11360-070, Invitrogen) • L-glutamine (25030-081, Invitrogen) • Relevant reagents: fluorescein (L0144, Sigma) • propranolol (P831800, Sigma) • colchicine (C9754, Sigma) • atenolol (A7655, Sigma) • Instruments: liquid chromatography (Waters Acquity UPLC I-class, Waters) • mass spectrometry (Waters xevo TQ-S MS/MS, Waters) • ohmmeter (Millicell-ERS, Thermo) • microplate reader (Infinite Pro, Tecan) (2). Assay Protocol:
• 1) The Caco-2 cells were revived, and incubated in a 10 cm petri dish in a 5-6% CO2 and 95% RH incubator at 37° C. […] The cells were re-suspended in 6 ml complete medium, and counted three times. • 3) The cells were harvested by centrifugation at 1000 rpm for 5 min, and diluted in suspension. […]

IC50 [1]: 363 nM
efflux ratio at 1.5 h, 20 μm [2]: 1.3
Papp A→B at 1.5 h, 20 μm ([2]; Papp, Apical to Basal, 20 μm, 1.5 h, read-out: apparent permeability coefficient (Caco-2) From A to B): 23.7 ×10⁻⁶ cm/s
SMILES: Cn1nccc1Nc1cc(-c2cc(F)c3c(c2)CCN3C(=O)Cc2cccnc2Cl)ccn1 [Example P9, 2-(2-chloropyridin-3-yl)-1-(7-fluoro-5-(2-((1-methyl-1H-pyrazol-5-yl)amino)pyridin-4-yl)indolin-1-yl)ethan-1-one]
